Laboratory results published in US8642510B2, “Inhibitors for brassinosteroid signalling” (GMI-Gregor Mendel-Institut fuer Molekulare Pflanzenbiologie …, priority 2008, dated 2014).
Entries after “also recorded” stand apart in the source; their conditions may differ.

How the values were obtained:
[1] = test system: group I and group II ASKs; settings: group I: ASKα, ASKγ, ASKε; group II: BIN2, ASKζ, ASKι; prior knowledge; listed as 4-[(5-bromo-2-pyridinyl)amino]-4-oxobutanoic acid; cited from earlier work
[2] = test system: cpd mutant seedlings; settings: background statement; cited from earlier work
[3] = target: T1, ASKθ (Arabidopsis thaliana, UniProt Q96287); settings: prior knowledge; cited from earlier work
T1 construct: made in house; host or cells: E. coli BL21
T1 sequence (Q96287 1-472): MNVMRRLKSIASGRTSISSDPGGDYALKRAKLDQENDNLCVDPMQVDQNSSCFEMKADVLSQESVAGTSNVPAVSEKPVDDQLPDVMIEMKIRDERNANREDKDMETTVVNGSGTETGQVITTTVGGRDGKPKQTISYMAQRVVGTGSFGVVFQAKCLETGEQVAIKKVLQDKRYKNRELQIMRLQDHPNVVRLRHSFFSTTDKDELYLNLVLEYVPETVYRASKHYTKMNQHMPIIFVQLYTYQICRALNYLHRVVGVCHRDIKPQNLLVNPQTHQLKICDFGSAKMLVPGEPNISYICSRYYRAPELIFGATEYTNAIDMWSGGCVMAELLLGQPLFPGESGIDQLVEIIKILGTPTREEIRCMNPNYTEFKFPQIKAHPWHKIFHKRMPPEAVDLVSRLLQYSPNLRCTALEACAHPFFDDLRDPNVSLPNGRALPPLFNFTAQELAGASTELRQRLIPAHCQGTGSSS

[4] = test system: ASKs (A. thaliana GSK-3/Shaggy-like kinases); test: In vitro kinase assay, GST-ASK fusion proteins with MBP and γ-[32P]-ATP; assay type: biochemical, Arabidopsis thaliana; settings: compounds at 10 μM, result in words
Experimental: GST-ASK fusion proteins were incubated with MBP as substrate and γ-[32P]-ATP as co-substrate in the absence (−) or presence of different derivatives (the numbers correspond to Table 1). […] The compounds were used at a concentration of 10 μM. The proteins were separated by SDS-PAGE and the incorporated radioactive phosphate detected with a storage phosphor imager screen.
(§1) ASKs were expressed as GST-fusion proteins in E. coli BL21. In vitro kinase assays were performed by incubating 50 ng GST-fusion protein, 10 μg myelin basic protein (MBP; Sigma, St Louis, Mo.) as substrate and 0.15 MBq γ-[32P]-ATP as co-substrate at 25° C. for 30 min. The reaction buffer consisted of 20 mM HEPES pH7.4, 15 mM MgCl2, 5 mM EGTA and 1 mM DTT. For initial experiments cold ATP was included at concentrations up to 3 μM. The reaction products were separated by SDS-PAGE and the amount of radioactivity incorporated into MBP quantified using an Amersham storage phosphor imager screen and a Biorad Molecular Imager FX. In vivo kinase activity was detected by phosphorylation band-shift assays using BZR1-CFP as substrate.
Representatives of all groups were expressed as recombinant GST fusion proteins in E. coli.

[5] = target: T2, ASKβ (Arabidopsis thaliana, UniProt O23145); settings: prior knowledge; cited from earlier work
T2 construct: made in house; host or cells: E. coli BL21
T2 sequence (O23145 1-431): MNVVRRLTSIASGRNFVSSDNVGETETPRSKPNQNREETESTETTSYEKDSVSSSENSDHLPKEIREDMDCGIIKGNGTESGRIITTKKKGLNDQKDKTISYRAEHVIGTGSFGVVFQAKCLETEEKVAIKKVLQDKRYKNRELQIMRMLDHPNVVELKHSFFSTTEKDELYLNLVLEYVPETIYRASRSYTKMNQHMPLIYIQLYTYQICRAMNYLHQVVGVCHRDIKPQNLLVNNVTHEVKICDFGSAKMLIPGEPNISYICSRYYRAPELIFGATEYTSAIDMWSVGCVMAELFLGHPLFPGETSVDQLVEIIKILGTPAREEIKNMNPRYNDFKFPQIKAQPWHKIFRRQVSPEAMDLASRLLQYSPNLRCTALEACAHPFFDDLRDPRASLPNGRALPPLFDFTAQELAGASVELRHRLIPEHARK

[6] = test system: bri1-1 mutant seedlings; settings: background statement; cited from earlier work
[7] = Determination of pKa values; settings: for pKa: 50% (v/v) methanol
Experimental: Fifty to 100 mg compound were weighed and dissolved in 50 ml 50% (v/v) methanol. A titration curve with 50 mM NaOH as standard solution was recorded with a Greisinger electonics GPHR 1400A pH meter. The equivalence point was determined by the difference quotient method (ΔpH/ΔVNaOH) and the pKa read from the titration curve at 50% neutralisation.

[8] = target: T3, ASKδ (Arabidopsis thaliana, UniProt Q9FVS6); settings: prior knowledge; listed as 4-[(5-bromo-2-pyridinyl)amino]-4-oxobutanoic acid; cited from earlier work
T3 construct: made in house; host or cells: E. coli BL21
T3 sequence (Q9FVS6 1-420): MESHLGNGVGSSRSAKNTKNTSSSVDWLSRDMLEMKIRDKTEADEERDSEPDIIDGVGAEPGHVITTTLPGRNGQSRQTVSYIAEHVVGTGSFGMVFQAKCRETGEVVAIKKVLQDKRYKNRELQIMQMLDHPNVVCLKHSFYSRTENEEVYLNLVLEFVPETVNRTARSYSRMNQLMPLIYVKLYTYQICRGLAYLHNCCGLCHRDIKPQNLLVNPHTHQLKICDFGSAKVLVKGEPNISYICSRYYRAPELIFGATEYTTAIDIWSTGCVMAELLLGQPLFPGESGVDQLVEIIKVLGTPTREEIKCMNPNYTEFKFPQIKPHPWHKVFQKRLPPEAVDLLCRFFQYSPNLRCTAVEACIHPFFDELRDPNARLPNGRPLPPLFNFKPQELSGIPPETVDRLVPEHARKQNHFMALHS

[9] = target: T4, ASKζ (Arabidopsis thaliana, UniProt Q39010); test: In vivo kinase assay, BZR1-CFP phosphorylation band-shift in protoplasts; assay type: cell-based, A. thaliana; settings: protoplasts co-transformed with BZR1-CFP and Myc-tagged ASK; increasing concentrations
T4 construct: expressed in transfected cells; host or cells: A. thaliana protoplasts
T4 sequence (Q39010 1-412): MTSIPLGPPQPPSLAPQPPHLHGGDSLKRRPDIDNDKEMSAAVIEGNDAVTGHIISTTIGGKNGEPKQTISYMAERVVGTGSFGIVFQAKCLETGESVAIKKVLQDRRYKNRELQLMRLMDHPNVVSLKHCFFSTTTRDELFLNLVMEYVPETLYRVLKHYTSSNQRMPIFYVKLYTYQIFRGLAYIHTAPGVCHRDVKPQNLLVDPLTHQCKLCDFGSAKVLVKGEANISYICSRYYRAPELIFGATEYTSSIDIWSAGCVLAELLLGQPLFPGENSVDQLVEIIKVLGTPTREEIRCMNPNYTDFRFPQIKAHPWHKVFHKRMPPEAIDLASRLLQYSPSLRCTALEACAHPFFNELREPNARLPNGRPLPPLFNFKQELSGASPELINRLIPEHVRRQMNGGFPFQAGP
From the text: A. thaliana protoplasts were co-transformed with expression constructs of BZR1-CFP and Myc-tagged ASKζ and treated with increasing concentrations of compounds 10 and 15. […] and ASKζ-Myc were detected by western blot analysis using polyclonal anti-GFP and monoclonal anti-Myc antibodies, respectively. A Coomassie R250 stain is shown as a loading control. Depending on the ASKζ kinase activity BZR1-CFP can be observed in a phosphorylated or unphosphorylated form (indicated by arrows). The ratio of the two ASKζ-Myc bands, indicating posttranslational modification of this protein, were not affected by inhibitor application.
ASKs were expressed as GST-fusion proteins in E. coli BL21. […] The reaction products were separated by SDS-PAGE and the amount of radioactivity incorporated into MBP quantified using an Amersham storage phosphor imager screen and a Biorad Molecular Imager FX. In vivo kinase activity was detected by phosphorylation band-shift assays using BZR1-CFP as substrate.
Because of this unexpected result, the effect of the inhibitions on the in vivo ASK activity was analysed by a direct method. […] Transformed protoplasts were incubated with different concentrations of compounds 10 and 15 and BZR1-CFP and […] and subsequently analysed by western blotting.

[10] = target: T5, BIN2 (Arabidopsis thaliana, UniProt Q39011); test: In vitro kinase assay, GST-BIN2; assay type: biochemical; settings: compounds at 10 μM; result in words
T5 construct: made in house; host or cells: E. coli BL21
T5 sequence (Q39011 1-380): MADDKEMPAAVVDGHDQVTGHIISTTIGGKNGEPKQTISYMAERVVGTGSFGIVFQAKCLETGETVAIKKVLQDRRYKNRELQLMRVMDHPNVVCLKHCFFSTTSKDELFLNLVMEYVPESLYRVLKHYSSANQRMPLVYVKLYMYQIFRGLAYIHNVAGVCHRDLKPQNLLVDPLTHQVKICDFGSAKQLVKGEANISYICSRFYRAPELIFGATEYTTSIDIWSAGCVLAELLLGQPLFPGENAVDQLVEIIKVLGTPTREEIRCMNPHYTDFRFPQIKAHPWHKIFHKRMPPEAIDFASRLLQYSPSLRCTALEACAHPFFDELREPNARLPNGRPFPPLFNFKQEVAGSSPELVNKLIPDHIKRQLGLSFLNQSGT
Experimental: GST-BIN2 was incubated with MBP and γ-[32P]-ATP in the absence or presence of compounds 3, 14 and 15 at a concentration of 10 μM. The proteins were separated by SDS-PAGE and phosphorylation of MBP was quantified with a phospho imager screen. The residual activity is expressed in % of the control. The means and standard deviations were calculated from 4 independent assays.
as §1
The second kinase of this class, ASKβ, and the group IV kinase ASKδ are not inhibited. Representatives of all groups were expressed as recombinant GST fusion proteins in E. coli. […]

SMILES | Inhibition of group I and group II ASKs [1] | Rescue of cpd mutant [2] | Inhibition of ASKθ (group III) [3] | Inhibition of ASKs in vitro (MBP phosphorylation) [4] | Inhibition of ASKβ (group III) [5] | Rescue of bri1-1 mutant [6] | pKa [7] | Inhibition of ASKδ (group IV) [8] | Inhibition of in vivo ASK activity (BZR1-CFP phosphorylation shift) [9] | Inhibition of ASKs in vitro (MBP phosphorylation) ([4]; listed as iodo derivative) | Portion undissociated ([7]; intracellular pH of 7.4) | Portion undissociated / lipophilic, capable of diffusion through the membrane ([7]; pH5.8, the pH of the medium) [%] | Inhibition of BIN2 in vitro (residual kinase activity) [10]
O=C(O)CCC(=O)Nc1ccc(Br)cn1 [Compound 14, 4-[(5-bromopyrid-2-yl)amino]-4-oxobutanoic acid] | potent inhibitor; also recorded: most sensitive | rescues both mutants | moderately inhibited | highly active | not inhibited | rescues both mutants | 5.6 | not inhibited; also recorded: insensitive |  |  |  |  | 
O=C(O)CCC(=O)Nc1ccc(I)cn1 [Compound 15, 4-[(5-iodopyrid-2-yl)amino]-4-oxobutanoic acid] |  |  |  | highest activity; also recorded: most potent compound in vitro |  |  | 5.8 |  | potent inhibitors in vivo; also recorded: highly active; also recorded: high inhibitory activity in vivo | highly active | less than 3% | 50 | highest potency
CC(C)[C@@H](C)[C@@H](O)[C@H](O)[C@@H](C)[C@H]1CC[C@H]2[C@@H]3COC(=O)[C@H]4C[C@H](O)[C@H](O)C[C@]4(C)[C@H]3CC[C@]12C [epi-brassinolide] |  | rescues cpd |  |  |  | not bril-1 |  |  |  |  |  |  | 
